Experimental findings from ChEMBL document CHEMBL1201862, “PubChem BioAssay data set” (2004) are described below.

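Tested at 5 concentrations; 48 h exposure; 96-well plates; endpoints linearly interpolated, else capped at highest concentration. The concentration for 50% growth inhibition is given as GI50.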 The source made the active and inactive calls. Cut-off read from the data, not from the text of the source: active = GI50 up to about 1.1 µM and inactive = higher. A value given as a limit tells only on which side of the number the result lay.

Some test systems named below: KM-20L2; DLD-1; DMS-273; SNB-78; LXFL 529; M19-MEL; RXF 631; HOP-18; XF498.
Common to all, as to test: growth of human tumour cells (NCI), 48 h

Consider `CC(C)c1ccc2c(c1)CCC1C(C)(C)[C@@H](O)CC[C@]21C` (some centres not stated), for which the GI50 with KM-20L2 is 21.4 µM (inactive); in the test with DLD-1, 36.6 µM (inactive); in the test on DMS-273 it was 31.8 µM (inactive); in the test with SNB-78 it was 47.4 µM (inactive); with LXFL 529, 47.3 µM (inactive); in the test with M19-MEL, 19.4 µM (inactive).

On to `CC(=O)OC1=C2CC3(C)OC(=O)CC(C)(C)C3=CC=C2C=C(C(C)C)C1=O` (configuration not stated), for which the GI50 with KM-20L2 is 1.62 µM (inactive); with DLD-1, 0.203 µM (active); in the test with RXF 631, 0.723 µM (active); in the test on DMS-273, 0.916 µM (active); in the test with SNB-78, 0.282 µM (active); with HOP-18 it was 1.16 µM (inactive). Besides, the GI50 with LXFL 529 is 0.157 µM (active); in the test on M19-MEL, 0.526 µM (active).

Consider `Cc1nc(Nc2ccc([N+](=O)[O-])cc2)sc1C(=O)/C=C/c1ccc(N(C)C)cc1`, for which the GI50 in the test with KM-20L2 was 73.1 µM (inactive); in the test with DLD-1, 60.5 µM (inactive); with RXF 631, > 100 µM (inactive); in the test with DMS-273 it was 77.3 µM (inactive); with HOP-18, > 100 µM (inactive); with M19-MEL, > 100 µM (inactive).

In the case of `CC(C)(C)c1cc(CCC(=O)Nc2ccc(Cl)cc2)nc(S)n1`, the GI50 in the test on KM-20L2, in the test on DLD-1, with RXF 631, in the test with DMS-273, in the test with HOP-18 and with LXFL 529 was > 100 µM (inactive) in each case. The GI50 with XF498 and in the test with M19-MEL was > 100 µM (inactive) in each case.

Consider `Nc1ccc2c(c1)Oc1c(F)c(F)cc3c(=O)c(C(=O)O)cn-2c13`, for which the GI50 in the test with KM-20L2 was 53.6 µM (inactive); in the test with DLD-1, 43.9 µM (inactive); with HOP-18, 51.5 µM (inactive); in the test on LXFL 529 it was 41.5 µM (inactive); in the test on M19-MEL, 34.9 µM (inactive).

Consider `CCCO/S(=N\S(=O)(=O)c1ccccc1)c1ccccc1[N+](=O)[O-]` (configuration not stated), for which the GI50 in the test with KM-20L2, in the test on DLD-1, with RXF 631, in the test on DMS-273, with SNB-78 and in the test with LXFL 529 was > 100 µM (inactive) each time. The GI50 in the test with XF498 and with M19-MEL was > 100 µM (inactive) throughout.

Regarding `CC1(C)CC(=O)C(C(=O)C(=O)NC2=C(Cl)C(=O)c3ccccc3C2=O)C(=O)C1`, the GI50 was > 100 µM (inactive) in the test on KM-20L2; > 100 µM (inactive) with DLD-1; 82.4 µM (inactive) with RXF 631; > 100 µM (inactive) with SNB-78; > 100 µM (inactive) in the test with HOP-18; 49.1 µM (inactive) with LXFL 529. The GI50 is > 100 µM (inactive) with XF498 and 61.5 µM (inactive) in the test with M19-MEL.

For `CCCCCCCCCCCCCCCCCC(=O)NCCCNCCCNC(=O)CCCCCCCCCCCCCCCCC`, the GI50 with KM-20L2, in the test with DLD-1, with RXF 631, with DMS-273, with HOP-18 and in the test with LXFL 529 was > 100 µM (inactive) each time. Also, the GI50 in the test on M19-MEL is > 100 µM (inactive).

As for `C=C1c2[nH]c3ccccc3c2CC(C(=O)O)N1C(O)c1ccc(S(=O)(=O)O)cc1` (configuration not stated), the GI50 in the test with DLD-1, in the test on RXF 631, in the test on DMS-273, in the test on SNB-78, in the test on LXFL 529 and in the test with XF498 was > 100 µM (inactive) throughout. Further, the GI50 in the test with M19-MEL was > 100 µM (inactive).

Take `COC(=O)c1ccccc1NC(=O)C(=O)NNC(=O)c1ccncc1`: the GI50 with KM-20L2, in the test with DLD-1, in the test on RXF 631, with DMS-273, in the test with HOP-18 and in the test with LXFL 529 was > 100 µM (inactive) in each case. Further, the GI50 in the test with XF498 and in the test on M19-MEL was > 100 µM (inactive) throughout.

As to `COc1cccc2c1C(=O)C1(O)CCCCC21` (configuration not stated), the GI50 with KM-20L2, in the test with DLD-1, in the test on DMS-273, with SNB-78, with HOP-18 and in the test on LXFL 529 was > 100 µM (inactive) throughout. Further, in the test on M19-MEL, the GI50 is > 100 µM (inactive).

`Cc1c(C(Cc2ccccc2N(C)C(=O)/C=C\C(=O)O)c2c[nH]c3ccccc23)c2ccccc2n1C` (configuration not stated): the GI50 in the test on KM-20L2 is 18.1 µM (inactive); in the test on DLD-1, 18.2 µM (inactive); with RXF 631, 14.2 µM (inactive); in the test with DMS-273, 17.1 µM (inactive); in the test with SNB-78 it was 21.1 µM (inactive); in the test with LXFL 529, 12.7 µM (inactive). In addition, the GI50 is 21 µM (inactive) with XF498 and 15.7 µM (inactive) with M19-MEL.

As to `CC1=C(C(=O)NCc2ccccc2)C(c2ccccc2C)C(C(=O)NCc2ccccc2)=C(C)N1`, the GI50 in the test with KM-20L2 was 28.4 µM (inactive); in the test on DLD-1, 20.9 µM (inactive); in the test on RXF 631, 42.1 µM (inactive); with DMS-273 it was 27.5 µM (inactive); in the test with SNB-78, 33.6 µM (inactive); with HOP-18 it was > 53 µM (inactive). Also, the GI50 is 29.5 µM (inactive) in the test on LXFL 529 and 33 µM (inactive) with M19-MEL.

Turning to `COC1=CC(=C(C#N)/C(=N\c2ccccc2)SC)C=C(OC)C1=O`, the GI50 is 24.5 µM (inactive) in the test with DLD-1; > 100 µM (inactive) in the test on RXF 631; 36.1 µM (inactive) in the test on DMS-273; 67.9 µM (inactive) in the test on SNB-78; > 100 µM (inactive) in the test on HOP-18; 17.5 µM (inactive) in the test on LXFL 529. Besides, the GI50 with M19-MEL was 70.6 µM (inactive).

On to `[N-]=[N+]=NC(c1cn(C2CC(O)C(CO)O2)c(=O)[nH]c1=O)C(Cl)Br` (configuration not stated), for which the GI50 in the test on KM-20L2 is > 100 µM (inactive); with DLD-1, > 100 µM (inactive); with DMS-273 it was > 100 µM (inactive); in the test on SNB-78 it was > 100 µM (inactive); in the test on HOP-18 it was 47.2 µM (inactive); in the test with LXFL 529, > 100 µM (inactive). In the test on M19-MEL, the GI50 is > 100 µM (inactive).

For the compound `Clc1ccc(C2=NOC3C4CCC(C4)C23)cc1` (configuration not stated), the GI50 in the test on DLD-1, with DMS-273, in the test on SNB-78, in the test with HOP-18, in the test on LXFL 529 and in the test with M19-MEL was > 100 µM (inactive) each time.

Turning to `CN(C)CCCNC(=O)N/N=C/c1cccc([N+](=O)[O-])c1`, the GI50 in the test on DLD-1 is > 100 µM (inactive); with DMS-273 it was > 100 µM (inactive); with SNB-78, > 100 µM (inactive); in the test on HOP-18 it was > 100 µM (inactive); in the test on LXFL 529, > 100 µM (inactive); with XF498 it was 5.93 µM (inactive).

Take `CCOC(=O)NC(=O)c1cn(CC(=O)NCC(=O)NCC(=O)N2CCN(CCn3c(C)nc(C(N)=O)c3N)CC2)c(=O)[nH]c1=O`: the GI50 in the test on KM-20L2, in the test on DLD-1, in the test on RXF 631, in the test with SNB-78, in the test with HOP-18 and in the test on LXFL 529 was > 100 µM (inactive) throughout. Also, the GI50 in the test on XF498 and in the test on M19-MEL was > 100 µM (inactive) throughout.

On to `CCc1nc2ccc(NCCN(C)C)c3c(=O)c4ccccc4n1c23`, for which the GI50 is 0.741 µM (active) with KM-20L2; 0.533 µM (active) with DLD-1; 1.53 µM (inactive) with SNB-78; 0.891 µM (active) in the test on HOP-18; 0.82 µM (active) in the test with LXFL 529; 2 µM (inactive) in the test with M19-MEL.

As to `NC(Cc1ccccc1)C(=O)OCN1C(=O)C2C3C=CC(C2C1=O)C1C2C(=O)N(COC(=O)C(N)Cc4ccccc4)C(=O)C2C31` (configuration not stated), the results for the GI50 with KM-20L2, in the test with DLD-1 and in the test with LXFL 529 were 23.9 µM (inactive), 26.6 µM (inactive) and 20.5 µM (inactive), respectively.

Consider `CC(C)C1COC(c2cccc(C3=N[C@@H](C(C)C)CO3)n2)=N1` (some centres not stated), for which the GI50 with KM-20L2, with DLD-1, in the test with RXF 631, with DMS-273, with SNB-78 and in the test with LXFL 529 was > 100 µM (inactive) each time. Further, the GI50 with XF498 and in the test on M19-MEL was > 100 µM (inactive) each time.

In the case of `Brc1ccc(/N=c2/nc3ccccn3n3nc(-c4ccccc4)cc23)cc1`, the GI50 in the test with KM-20L2 is 66.4 µM (inactive); in the test with DLD-1, 14.7 µM (inactive); in the test with RXF 631, 31.6 µM (inactive); in the test with HOP-18, 29.6 µM (inactive); in the test with LXFL 529 it was 56.8 µM (inactive); in the test on XF498 it was 10.3 µM (inactive). For the same compound, the GI50 in the test on M19-MEL is 43.6 µM (inactive).

On to `O=[N+]([O-])c1ccc2c(c1)OCCOCCOc1ccc([N+](=O)[O-])cc1OCCOCCO2`, for which the GI50 in the test with KM-20L2 was 50.9 µM (inactive); in the test on DMS-273 it was > 100 µM (inactive); in the test on SNB-78, > 100 µM (inactive).

On to `O=C1C2=C(CCCC2)Nc2cccc3ncn1c23`, for which the GI50 in the test on KM-20L2 is > 100 µM (inactive); with DLD-1, > 100 µM (inactive); in the test with DMS-273, > 100 µM (inactive); in the test on SNB-78, > 100 µM (inactive); with HOP-18, 10.3 µM (inactive); with LXFL 529, > 100 µM (inactive). In addition, in the test with M19-MEL, the GI50 was > 100 µM (inactive).

On to `[N-]=[N+]=NC1CC(n2cc(COCC(F)(F)F)c(=O)[nH]c2=O)OC1CO` (configuration not stated), for which the GI50 with KM-20L2, in the test on DLD-1, in the test on DMS-273, in the test with SNB-78, with LXFL 529 and with XF498 was > 100 µM (inactive) throughout. For the same compound, the GI50 in the test on M19-MEL is > 100 µM (inactive).

Consider `COP1(=O)CC2C(Cl)(Cl)C2(C)C1` (configuration not stated), for which the GI50 with KM-20L2, with DLD-1, in the test with DMS-273, in the test on SNB-78, with HOP-18 and in the test on LXFL 529 was > 100 µM (inactive) throughout. Further, the GI50 in the test with XF498 and in the test on M19-MEL was > 100 µM (inactive) throughout.
